From patent US5998596A, “Inhibition of protein kinase activity by aptameric action of oligonucleotides” (The United States of America as represented by the …)

Tests used:
src kinase = assay: Immunoprecipitation kinase assay of c-src with enolase as substrate; assay type: biochemical, human
Text: (§1) The p210^bcr-abl kinase, src kinase and cdc-2 kinase were immunoprecipitated from K562 cells. The p145^abl kinase was immunoprecipitated from PC3M cells, PDGF receptor kinase from 3T3 cells, and EGF receptor kinase from A431 cells. MAP kinase was utilized as a pure protein and lck kinase was immunoprecipitated from peripheral blood lymphocytes of a normal volunteer.
(§2) Epidermal growth factor receptor (EGFR) was immunoprecipitated with 10 ,g anti-EGFR antibody (clone LA1) and human recombinant epidermal growth factor (both from Upstate Biotechnology Inc., Lake Placid, N.Y.). The assay was performed as described (17) but without removing the EGFR from the protein A-antibody solid support. Instead, epidermal growth factor, at a final concentration of 100 nM, was added to the kinase reaction mixture. Platelet derived growth factor receptor (DGFR) was immunoprecipitated with anti-human type A/type B PDGFR antibody (Upstate Biotechnology Inc.) and immune complex kinase assays performed as referenced (18) except that protein A-Sepharose coated with rabbit anti-mouse immunoglobulin was used instead of formalin-fixed Staphylococcus aureus to bind PDGFR-antibody conjugates. C-src was immunoprecipitated with anti-v-src antibody (Ab-1; Oncogene Science) and assayed as previously described (19) with the addition of enolase as exogenous substrate. […]

[1] = system: p210^bcr-abl kinase in K562 cells; assay: Immunoprecipitation kinase assay of p210bcr-abl from ODN treated K562 cells; assay type: cell-based, human; conditions: K562 cells incubated 3 days with 50 μM ODN, washed
Description: (§3) Immunoprecipitation kinase assays of p210^bcr-abl p145^abl were performed as described, with modifications (15). Briefly, for p210^bcr-abl, 1 μg of anti-bcr antibody (clone 7C6, Oncogene Science, Uniondale, N.Y.) was added to lysates prepared from 0.5-1×10^6 K562 cells. For p145^abl, 1 μg of anti-c-abl antibody (clone 24-21), which binds to the C-terminal domain of p145^abl, was added to lysates prepared from 5×10^6 PC3M cells. After incubating 1 hour at 4° C., complexes were precipitated by incubating with protein A-Sepharose coated with rabbit anti-mouse immunoglobulin (Cappel Research Products, Durham, N.C.) for 30 minutes. The complexes were then washed as follows: ABL lysis buffer×2, PBS×1, and ABL assay buffer×1 (24 mM imidazole, pH 7.2, 1 mg/ml bovine serum albumin, and 10 mM MnCl). For p145^abl assays ABL assay buffer contained 20 mM MnCl. To access the activity of p210^bcr-abl on substrate phosphorylation, acid inactivated enolase (Sigma Chemical Co., St. Louis, Mo.) was added as described (15).
(§4) ODNs were added to kinase reaction buffers not more than 5 minutes prior to the addition of ATP. Reactions were initiated by the addition of [γ^-32 P] ATP (3000 Ci/mmole; Amersham Corp., Arlington Heights, Ill.) and quenched by the addition of 5× gel loading buffer and heating to 95° C. Kinase reactions were run for 1-10 minutes at room temperature, except for EGFR, p145^abl, and MAP kinase, which were run at 30° C. The products were then electrophoresed on SDS-polyacrylamide gels: 7% for p210^bcr-abl, EGFR, and PDGFR, 8% for p145^abl, 10% for src, lck, and cdc-2 kinase, and 12% for MAP kinase. Gels were dried and reaction products were visualized by direct autoradiography at -70° C. with Kodak X-OMAT AR film. To determine the inhibitory concentration 50, i.e., the concentration required to inhibit enzyme activity by 50% (IC50) and Ki values, gel slices containing the band of interest were excised and analyzed by Cerenkov counting.
The effects of ODN1 on a cellular system were assessed. […] After 3 days, cells were washed and p210^bcr-abl kinase activity was measured. […] Neither cellular p210^bcr-abl protein content nor cell growth was affected by ODN treatment (data not shown).

[2] = system: p210^bcr-abl protein level in K562 cells; assay: Western analysis of p210bcr-abl protein level in ODN treated K562 cells; assay type: cell-based, human; conditions: one hour after electroporation with 100 μM ODN
Description: For p210^bcr-abl Western analysis, probing was carried out with the ECL Western blotting kit (Amersham) according to manufacturer's instructions. Briefly, membranes were blocked in 5% non-fat dry milk in TTBS for 1 hour, incubated with anti-p210^bcr-abl antibody (clone 8E9, Pharmingen, San Diego, Calif.) diluted 1:500 in TTBS for 1 hour, with sheep anti-mouse horseradish peroxidase-linked antibody (diluted 1:1000) for 1 hour, and lastly incubated in a luminol based detection solution for 1 minute. Membranes were exposed to Kodak X-OMAT AR film for various time periods.
Electroporation was performed as described (40). Briefly, 1-5×10^6 cells in 1 ml of RPMI 1640 with 10% fetal calf serum were placed into 0.4 cm gap electroporation chambers and electroporated with a Cell-Porator Electroporation System 1 (all from GIBCO BRL, Grand Island, N.Y.) at 800 microfarrads, 300 volts, at room temperature. Cells were then incubated at 37° C. for 1 hour before manipulation.

cdc-2 kinase = cdc-2 kinase assay with dephosphorylated casein; assay type: biochemical, human; conditions: Cerenkov counting of excised gel slices
Text: as §1, §2

MAP kinase = MAP kinase assay with purified enzyme; assay type: biochemical; conditions: Cerenkov counting of excised gel slices
Text: as §1, §2

p210^bcr-abl kinase = assay: Immunoprecipitation kinase assay of p210bcr-abl (autophosphorylation), ODN added to kinase reaction; assay type: biochemical, human; conditions: for inhibition of p210^bcr-abl kinase activity in vitro (in words): ODN at 1 μM added to the immunoprecipitated enzyme
Description: as §1
Cells were washed in phosphate buffered saline (PBS) and 0.5-5×10^6 cells were solubilized in 1 ml of the specified cell lysis buffers. Unless otherwise stated, all cell lysis buffers contained the following protease inhibitors: 20 μg/ml leupeptin, 1 μg/ml aprotinin, and 1 mM phenylmethylsulfonylfluroide. For p210^bcr-abl and […] immunoprecipitation, cells were lysed with ABL lysis buffer (25 mM imidazole, pH 7.2, 0.5% NP40, 50 mM NaCl, 1 mM Na3 VO4) and lysates were clarified at 14,000 g. 4° C. for 30 minutes. Cell lysis for all other proteins was performed according to the references describing the various immunoprecipitation kinase assays.
as §3, §4

p145^abl kinase = assay: Phosphorylation of exogenous substrate enolase by p145abl; assay type: biochemical; conditions: ODN1 concentrations of up to 50 μM
Description: as §3
ODNs were added to kinase reaction buffers not more than 5 minutes prior to the addition of ATP. Reactions were initiated by the addition of [γ^-32 P] ATP (3000 Ci/mmole; Amersham Corp., Arlington Heights, Ill.) and quenched by the addition of 5× gel loading buffer and heating to 95° C. […]

5'-GTCCACCATGGCGCGGCCGGC-3' [ODN1] (phosphorothioate caps, further chemistry not given here) [21mer ODN complementary to nucleotides -12 to +9 of the p210bcr-abl mRNA, phosphorothioate capped unless otherwise specified]
IC50 (src kinase; Cerenkov counting of excised gel slices): > 100000 nM | inhibition of src (in words) (src kinase; ODN1 concentrations greater than 2 logs above the Ki for p210^bcr-abl): not significantly inhibited | p210^bcr-abl kinase activity of ODN treated K562 cells [1]: significantly decreased | p210^bcr-abl kinase activity of ODN treated K562 cells ([1]; listed as BCR-AS): reduction | p210^bcr-abl protein level [2]: no decrement | IC50 (cdc-2 kinase): > 50000 nM | IC50 (MAP kinase): > 100000 nM | p210^bcr-abl autophosphorylation in the presence of enolase (p210^bcr-abl kinase; 1 μM BCR-AS, lower concentrations of enolase, three minute reaction): only a slight effect | nature of the enzymatic inhibition with respect to ATP (p210^bcr-abl kinase; 1 μM ODN1): purely noncompetitive | IC50 (p210^bcr-abl kinase; Cerenkov counting of excised gel slices, mean ± SD): 520 ± 120 nM | Percent Remaining Activity of p210^bcr-abl kinase relative to control (p210^bcr-abl kinase; ODN 1 μM, phosphorothioate capped, mean ± SE of three experiments): 36 ± 1.2% | inhibition of p210^bcr-abl kinase activity in vitro (in words) (p210^bcr-abl kinase): markedly inhibited | inhibition of p210^bcr-abl kinase activity in vitro (in words) (p210^bcr-abl kinase; listed as ODN1 phosphorothioate capped): intermediate potencies | Ki (p210^bcr-abl kinase; various [γ-32P]ATP concentrations, presence or absence of 1 μM ODN1, double-reciprocal plot): 520 ± 120 nM | inhibition of enolase phosphorylation by p145^abl (p145^abl kinase): no significant inhibition
